Test results reported in PMC7116955 (Biochimica et Biophysica Acta. General Subjects, 2005).
“Also recorded” adds a separate entry of the source.

How the values were obtained:
Conditions in all cases: pH 7.4
[1] = tested on: Pep 1E; format: binding, SARS-CoV
[2] = tested on: Pep 2B; format: binding, SARS-CoV
[3] = tested on: Pep HR2; format: binding, SARS-CoV
[4] = tested on: Pep 1D; format: binding, SARS-CoV
[5] = tested on: Pep 1E; format: binding, SARS-CoV; remark: listed apart in the source
[6] = tested on: Pep 2B; format: binding, SARS-CoV; remark: listed apart in the source
[7] = tested on: Pep HR2; format: binding, SARS-CoV; remark: listed apart in the source
[8] = format: physicochemical
[9] = format: physicochemical; remark: listed apart in the source
[10] = format: physicochemical; remark: listed apart in the source

WQEWEQKITALLEQAQIQQEKNEYELQKLDKWASLWEWF [Pep T-1249]
fluorescence emission intensity variation on titration with Pep 1E [1]: The same occurs for T-1249, although the results are not so evident | fluorescence emission intensity variation on titration with Pep 2B [2]: Fluorescence variation was not detected | fluorescence emission intensity variation on titration with Pep HR2 [3]: The same occurs for T-1249, although the results are not so evident | ANS fluorescence increase / interaction with Pep 1D, S peptide added [4]: exhibit a larger variability; also recorded: low signal/noise ratios, preventing straightforward conclusions | ANS fluorescence / interaction with Pep 1E [5]: does not interact | ANS fluorescence / interaction with Pep 2B [6]: no evidence of interaction | ANS fluorescence / interaction with Pep HR2 [7]: no evidence of interaction | self-aggregation by ANS fluorescence [8]: self-aggregate | interaction with membranes [9]: most extensive interaction with membranes | membrane partition in presence of Pep 1D [10]: The same occurs | membrane partition in presence of Pep 1E [10]: The same occurs | membrane partition in presence of Pep 2B [10]: no difference occurs | membrane partition in presence of Pep HR2 [10]: no difference occurs
